Measured values from patent publication US20110059970A1, “4-PHENYL-1,3-THIAZOLES AND 4-PHENYL-1,3-OXAZOLES DERIVATIVES AS CANNABINOID RECEPTOR LIGANDS” (IPSEN PHARMA S.A.S., priority 2007, published 2011).
Where a name gives a salt, the structure may show the parent alone.

Target: T1, human CB2 receptors (Homo sapiens, UniProt P34972)
T1 construct: expressed in transfected cells; membranes prepared from them
Experiment: Affinity for human CB2 receptors: inhibition of [3H]-CP55940 binding to membranes of transfected CHO-K1 cells
Conditions: not given
Procedure: Study of the Affinity of the Compounds for Human Cannabinoid CB2 Receptors
The affinity of the compounds of the invention for human CB2 receptors was determined by measuring inhibition of [^3H]-CP55940 binding to membrane preparations produced from transfected CHO-K1 cells.
CHO-K1 cells stably expressing human CB2 receptors were cultured in RPMI 1640 medium supplemented with 10% foetal calf serum, 2 mM glutamine, 100 U/ml penicillin, 0.1 mg/ml streptomycin and 0.5 mg/ml G418. The cells were collected using 0.5 mM EDTA and centrifuged at 500 g for 5 min at 4° C. The cell pellet was resuspended in phosphate buffered saline (PBS) and centrifuged at 500 g for 5 min at 4° C. The pellet was resuspended in 50 mM tris buffer pH 7.4 and centrifuged at 500 g for 5 min at 4° C. The cells were lysed by sonication and centrifuged at 39,000 g for 10 min at 4° C. The pellet was resuspended in 50 mM tris buffer pH 7.4 and centrifuged at 50,000 g for 10 min at 4° C. The membranes obtained in this final pellet were stored at −80° C.
Competitive inhibition of the binding of [^3H]-CP55940 to CB2 receptors was determined in duplicate in 96-well polypropylene plates. Cell membranes (10 μg of protein/well) were incubated with [^3H]-CP55940 (1 nM) for 60 min at 25° C. in 50 mM Tris-HCl buffer, pH 7.4, containing 0.1% bovine serum albumin (BSA), 5 mM MgCl2, and 50 μg/ml of bacitracin.
Bound [^3H]-CP55940 was separated from free [^3H]-CP55940 by filtration through GF/C fibre glass filter plates (Unifilter, Packard) pre-impregnated with 0.1% polyethylenimine (P.E.I.), using a Filtermate 196 (Packard). The filters were washed with 50 mM Tris-HCl buffer, pH 7.4 at 0-4° C. and the radioactivity present was determined using a counter (Packard Top Count).
Specific binding was obtained by subtracting non-specific binding (determined in the presence of 0.1 μM WIN55212-2) from total binding. The data were analysed by computer-assisted nonlinear regression (MDL). For each test, the IC50 value was converted to a Ki value (inhibition constant) using the Cheng-Prusoff equation.
where [L] is the concentration of the radioligand used in the assay and Kd is the dissociation constant of the radioligand at equilibrium.

T1 sequence (P34972 whole entry): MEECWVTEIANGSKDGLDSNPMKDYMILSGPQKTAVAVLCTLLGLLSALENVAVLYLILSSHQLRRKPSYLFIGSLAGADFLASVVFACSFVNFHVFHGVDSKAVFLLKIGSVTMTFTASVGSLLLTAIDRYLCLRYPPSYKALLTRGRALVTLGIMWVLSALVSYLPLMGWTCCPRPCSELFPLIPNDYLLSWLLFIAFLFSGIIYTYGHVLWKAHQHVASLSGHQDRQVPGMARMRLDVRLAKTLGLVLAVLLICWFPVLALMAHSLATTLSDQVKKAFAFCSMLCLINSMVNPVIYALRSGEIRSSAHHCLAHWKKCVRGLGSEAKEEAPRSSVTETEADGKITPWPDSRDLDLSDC

SMILES	Ki [nM]
COc1c(C(C)(C)C)cc(-c2csc(C3(N(C)C)CCOCC3)n2)cc1C(C)(C)C [Example 2, {4-[4-(3,5-di-tert-butyl-4-methoxyphenyl)-1,3-thiazol-2-yl]tetrahydro-2H-pyran-4-yl}dimethylamine hydrochloride]	≤ 100
CN(C)C1(c2nc(-c3cc(C(C)(C)C)c(O)c(C(C)(C)C)c3)cs2)CCSCC1 [Example 6, 2,6-di-tert-butyl-4-{2-[4-(dimethylamino)tetrahydro-2H-thiopyran-4-yl]-1,3-thiazol-4-yl}phenol hydrochloride]	≤ 100
CN(C)C1(c2nc(-c3cc(C(C)(C)C)c(O)c(C(C)(C)C)c3)cs2)CCOC1 (stereo not shown) [Example 7, 2,6-di-tert-butyl-4-{2-[3-(dimethylamino)tetrahydrofuran-3-yl]-1,3-thiazol-4-yl}phenol hydrochloride]	100 to 500
COc1c(Cl)cc(-c2csc(C3(N(C)C)CCOCC3)n2)cc1C(C)(C)C [Example 13, {4-[4-(3-tert-butyl-5-chloro-4-methoxyphenyl)-1,3-thiazol-2-yl]tetrahydro-2H-pyran-4-yl}dimethylamine hydrochloride]	100 to 500
COc1ccc(-c2csc(C3(N(C)C)CCOCC3)n2)cc1C(C)(C)C [Example 14, {4-[4-(3-tert-butyl-4-methoxyphenyl)-1,3-thiazol-2-yl]tetrahydro-2H-pyran-4-yl}dimethylamine hydrochloride]	500 to 1000
CN(C)C1(c2nc(-c3cc(C(C)(C)C)c(O)c(C(C)(C)C)c3)co2)CCOCC1 [Example 15, 2,6-di-tert-butyl-4-{2-[4-(dimethylamino)tetrahydro-2H-pyran-4-yl]-1,3-oxazol-4-yl}phenol hydrochloride]	≤ 100
CC(C)(C)c1cc(-c2csc(C3(N4CCCCC4)CCOCC3)n2)cc(C(C)(C)C)c1O [Example 20, 2,6-di-tert-butyl-4-[2-(4-piperidin-1-yltetrahydro-2H-pyran-4-yl)-1,3-thiazol-4-yl]phenol hydrochloride]	≤ 100
CC(C)(C)c1cc(-c2csc(C3(N4CCOCC4)CCOCC3)n2)cc(C(C)(C)C)c1O [Example 21, 2,6-di-tert-butyl-4-[2-(4-morpholin-4-yltetrahydro-2H-pyran-4-yl)-1,3-thiazol-4-yl]phenol]	100 to 500
COc1c(C(C)(C)C)cc(-c2nc(C3(N(C)C)CCOCC3)sc2C)cc1C(C)(C)C [Example 25, {4-[4-(3,5-di-tert-butyl-4-methoxyphenyl)-5-methyl-1,3-thiazol-2-yl]tetrahydro-2H-pyran-4-yl}dimethylamine hydrochloride]	100 to 500

Same assay, conditions: [3H]-CP55940 (1 nM) competition, CHO-K1 membranes; IC50 converted to Ki by Cheng-Prusoff; read-out: affinity for the CB2 receptor

Ki [nM]	SMILES
≤ 100	CN(C)C1(c2nc(-c3cc(C(C)(C)C)c(O)c(C(C)(C)C)c3)cs2)CCOCC1 [Example 4, 2,6-di-tert-butyl-4-{2-[4-(dimethylamino)tetrahydro-2H-pyran-4-yl]-1,3-thiazol-4-yl}phenol hydrochloride]
100 to 500	CN(C)C1(c2nc(-c3ccc(C(C)(C)C)cc3)cs2)CCOCC1 [Example 8, {4-[4-(4-tert-butylphenyl)-1,3-thiazol-2-yl]tetrahydro-2H-pyran-4-yl}dimethylamine hydrochloride]
100 to 500	CN(C)C1(c2nc(-c3cc(C(C)(C)C)cc(C(C)(C)C)c3)cs2)CCOCC1 [Example 11, {4-[4-(3,5-di-tert-butylphenyl)-1,3-thiazol-2-yl]tetrahydro-2H-pyran-4-yl}dimethylamine hydrochloride]
100 to 500	CN(C)C1(c2nc(-c3ccc(Oc4ccccc4)cc3)cs2)CCOCC1 [Example 16, N,N-dimethyl-4-[4-(4-phenoxyphenyl)-1,3-thiazol-2-yl]tetrahydro-2H-pyran-4-amine hydrochloride]
100 to 500	CCNC1(c2nc(-c3cc(C(C)(C)C)c(O)c(C(C)(C)C)c3)cs2)CCOCC1 [Example 17, 2,6-di-tert-butyl-4-{2-[4-(ethylamino)tetrahydro-2H-pyran-4-yl]-1,3-thiazol-4-yl}phenol]
≤ 100	CCN(CC)C1(c2nc(-c3cc(C(C)(C)C)c(O)c(C(C)(C)C)c3)cs2)CCOCC1 [Example 18, 2,6-di-tert-butyl-4-{2-[4-(diethylamino)tetrahydro-2H-pyran-4-yl]-1,3-thiazol-4-yl}phenol hydrochloride]
100 to 500	CNC1(c2nc(-c3cc(C(C)(C)C)c(O)c(C(C)(C)C)c3)cs2)CCOCC1 [Example 19, 2,6-di-tert-butyl-4-{2-[4-(methylamino)tetrahydro-2H-pyran-4-yl]-1,3-thiazol-4-yl}phenol hydrochloride]
100 to 500	CN1CCC(c2nc(-c3cc(C(C)(C)C)c(O)c(C(C)(C)C)c3)cs2)(N(C)C)CC1 [Example 23, 2,6-di-tert-butyl-4-{2-[4-(dimethylamino)-1-methylpiperidin-4-yl]-1,3-thiazol-4-yl}phenol hydrochloride]
500 to 1000	CCN(CC)c1ccc(-c2csc(C3(N(C)C)CCOCC3)n2)cc1 [Example 28, (4-{4-[4-(diethylamino)phenyl]-1,3-thiazol-2-yl}tetrahydro-2H-pyran-4-yl)dimethylamine hydrochloride]
500 to 1000	CN(C)C1(c2nc(-c3ccc(Cc4ccccc4)cc3)cs2)CCOCC1 [Example 29, {4-[4-(4-benzylphenyl)-1,3-thiazol-2-yl]tetrahydro-2H-pyran-4-yl}dimethylamine hydrochloride]
100 to 500	CN(C)C1(c2nc(-c3ccc(Oc4ccc([N+](=O)[O-])cc4)cc3)cs2)CCOCC1 [Example 32, N,N-dimethyl-4-{4-[4-(4-nitrophenoxy)phenyl]-1,3-thiazol-2-yl}tetrahydro-2H-pyran-4-amine hydrochloride]
500 to 1000	CN(C)C1(c2nc(-c3ccc(Sc4ccccc4)cc3)cs2)CCOCC1 [Example 33, N,N-dimethyl-4-{4-[4-(phenylthio)phenyl]-1,3-thiazol-2-yl}tetrahydro-2H-pyran-4-amine hydrochloride]

Tested on: not given
Experiment: not given
Conditions: not given

melting point [°C]	SMILES
237.5 to 239	COc1c(C)cc(-c2csc(C3(N(C)C)CCOCC3)n2)cc1C (as salt: hydrochloride)
127 to 130	CN(C)C1(c2nc(-c3ccc(Oc4cccc(Cl)c4C#N)cc3)cs2)CCOCC1 (as salt: hydrochloride)
120 to 121	COc1ccc(Oc2ccc(-c3csc(C4(N(C)C)CCOCC4)n3)cc2)cc1 (as salt: hydrochloride)
199.4 to 200.7	COc1c(-c2csc(C3(N(C)C)CCOCC3)n2)cc(C(C)(C)C)cc1C(C)(C)C (as salt: hydrochloride)
205 to 207	CN(C)C1(c2nc(-c3ccc(C(C)(C)C)cc3)cs2)CCOCC1 (as salt: hydrochloride) [Example 8, {4-[4-(4-tert-butylphenyl)-1,3-thiazol-2-yl]tetrahydro-2H-pyran-4-yl}dimethylamine hydrochloride]
232.2 to 233	CN(C)C1(c2nc(-c3cc(C(F)(F)F)cc(C(F)(F)F)c3)cs2)CCOCC1 (as salt: hydrochloride) [Example 9, (4-{4-[3,5-bis(trifluoromethyl)phenyl]-1,3-thiazol-2-yl}tetrahydro-2H-pyran-4-yl)dimethylamine hydrochloride]
213 to 223.2	CN(C)C1(c2nc(-c3ccc(Oc4ccccc4)cc3)cs2)CCOCC1 (as salt: hydrochloride) [Example 16, N,N-dimethyl-4-[4-(4-phenoxyphenyl)-1,3-thiazol-2-yl]tetrahydro-2H-pyran-4-amine hydrochloride]

SMILES	melting point [°C]
COc1c(C(C)(C)C)cc(-c2csc(C3(N(C)C)CCOCC3)n2)cc1C(C)(C)C (as salt: hydrochloride) [Example 2, {4-[4-(3,5-di-tert-butyl-4-methoxyphenyl)-1,3-thiazol-2-yl]tetrahydro-2H-pyran-4-yl}dimethylamine hydrochloride]	215 to 216.7
COc1c(Cl)cc(-c2csc(C3(N(C)C)CCOCC3)n2)cc1C(C)(C)C (as salt: hydrochloride) [Example 13, {4-[4-(3-tert-butyl-5-chloro-4-methoxyphenyl)-1,3-thiazol-2-yl]tetrahydro-2H-pyran-4-yl}dimethylamine hydrochloride]	219.7 to 222.2
COc1ccc(-c2csc(C3(N(C)C)CCOCC3)n2)cc1C(C)(C)C (as salt: hydrochloride) [Example 14, {4-[4-(3-tert-butyl-4-methoxyphenyl)-1,3-thiazol-2-yl]tetrahydro-2H-pyran-4-yl}dimethylamine hydrochloride]	232.7 to 233.5
